These results are taken from paper PMC6358602, “The catalytic activity and secretion of zebrafish RNases are essential for their in vivo function in motor neurons and vasculature” (Scientific Reports, 2019).

The target in this assay is T1, human angiogenin (hANG) (Homo sapiens, UniProt P03950).
T1 construct: gene ANG; [Met−1]-form
As to the kind of experiment: fluorogenic RNase activity assay with and without NCI-65828 (Fig. 1E). In kind it is biochemical.

T1 sequence (P03950 25-147): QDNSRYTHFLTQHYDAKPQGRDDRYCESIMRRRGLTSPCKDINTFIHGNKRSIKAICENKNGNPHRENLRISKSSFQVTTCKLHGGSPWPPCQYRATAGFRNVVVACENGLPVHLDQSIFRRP

On to `Nc1ccc(/N=N/c2ccc(-c3ccc(O)cc3)cc2)c2ccc(S(=O)(=O)O)cc12` [NCI-65828, 8-amino-5-(4′-hydroxybiphenyl-4-azo) napathlene-2-sulphate], for which the “fluorogenic RNase activity assay with and without NCI-65828 (Fig. 1E)” value is “Enzyme kinetic data for Rnasel and hANG native protein and in the presence of NCI-65828”.
